logP data for 16 compounds are collected here from the SangsterLogP compilation.

Broadly, the logP is the decadic logarithm of the partition coefficient of the neutral form, usually between octanol and water. A lower logP goes with a more hydrophilic compound. `OCCNc1nc2ccccc2[nH]1`: the logP is 1.1.

Turning to `CC(=O)Nc1ccccc1N`, the log partition coefficient (logP) is 0.13.

Turning to `CCC(=O)NC(=O)Nc1ccccc1`, the logP is 2.19.

Take `CC(C)NC(=O)Nc1ccccc1`: the lipophilicity (logP) is 1.84.

In turn, `CC(C)NC(=O)c1ccc2ccccc2c1` displayed a lipophilicity (logP) of 2.68.

`CCc1ccccc1NC` showed a logP of 2.58.

`CC(C)NC(=O)c1cc2ccccc2oc1=O` showed a lipophilicity (logP) of 2.13.

For the compound `c1ccc(CNc2nc3ccccc3[nH]2)cc1`, the log partition coefficient (logP) was 2.92.

On to `CC(C)Nc1ccccc1N`, for which the lipophilicity (logP) was 1.65.

`CNc1ccccc1C(=O)OC` yielded a log partition coefficient (logP) of 2.97.

For `O=C(Nc1ccccc1)Nc1ccccn1`, the logP was determined as 3.1.

For `NC(=O)C(c1ccccc1)c1ccccc1`, the logP is 2.11.

`O=C(CCl)Nc1sc2c(c1C(=O)c1ccccc1)CCCC2` yielded a lipophilicity (logP) of 4.58.

As to `COc1ccc(C(=O)Nc2nc3ccccc3[nH]2)cc1`, the logP was determined as 2.89.

The compound `CNC(=O)Nc1ccccn1` showed a lipophilicity (logP) of 0.8.

`NC(=O)C(C(N)=O)c1ccccc1`: the logP is -0.07.
